“And” between values parts separate entries of the source, which are not always exact repeats. Equal entries are not always repeated.
Legend:
mGlu1(N264H) mutant = target: T1, mGlu1(N264H) mutant (Rattus norvegicus, UniProt P23385, N264H); test: Fura-2 Ca2+ imaging in HEK293 cells expressing mGlu1(N264H); assay type: cell-based; conditions: 10 µM LY367385, 1 µM FITM, 10 µM YM254890 or 1 µM U73122
T1 construct: expressed in transfected cells; host or cells: HEK293

[1] = target: T2, cell-surface mGlu1 in cerebellar slices of mGlu1^+/+ mice (Mus musculus, UniProt P97772); test: Confocal live imaging of cell-surface mGlu1 with FITM-Cy3 in acute cerebellar slices, mGlu1^+/+; assay type: binding
T2 construct: from tissue; host or cells: acute cerebellar slices of mGlu1+/+ (C57BL/6J) mice
Experimental: (§1) Sagittal cerebellar slices were cut with a microslicer (Linear slicer Pro7; DOSAKA EM) in cutting solution buffer and then incubated in ACSF gassed with 5% CO2 and 95% O2 at room temperature.
(§2) The cerebellar slices prepared from mGlu1^+/+ or mGlu1^CBC/CBC mice, were incubated with 10 nM FITM-Cy3 and 10 µg/mL Hoechst33342 for 30 min at room temperature in a humidified atmosphere of 5% CO2 and 95% O2. As a negative control, the cerebellar slices were incubated with 10 nM FITM-Cy3, 10 µg/mL Hoechst33342, and 500 nM FITM. Then, the slices were subjected to confocal live imaging using a confocal microscope (LSM900, Carl Zeiss). The fluorescence intensity of Cy3 at the molecular layer were quantified by ZEN blue software (Carl Zeiss).

[2] = target: T3, cell-surface mGlu1 in cerebellar slices of mGlu1^CBC/CBC mice (Mus musculus, UniProt P97772, N264H); test: Confocal live imaging of cell-surface mGlu1 with FITM-Cy3 in acute cerebellar slices, mGlu1^CBC/CBC; assay type: binding
T3 construct: from tissue; host or cells: acute cerebellar slices of homozygous mGlu1(N264H) knock-in (mGlu1CBC/CBC) mice
Experimental: as §1, §2

primary cortical neurons = test: Fura-2 Ca2+ imaging (abnormal Ca2+ response) in cultured cortical neurons; conditions: co-treated 30 µM LY367385, 1 µM FITM or 10 µM U73122
[3] = 10 nM FITM-Cy3 with excess (500 nM) FITM
[4] = mGlu1+/+, relative to Ave of mGlu1+/+ FITM (-) = 1
[5] = mGlu1CBC/CBC, relative to Ave of mGlu1+/+ FITM (-) = 1

T2 sequence (P97772 19-1199 limits assumed): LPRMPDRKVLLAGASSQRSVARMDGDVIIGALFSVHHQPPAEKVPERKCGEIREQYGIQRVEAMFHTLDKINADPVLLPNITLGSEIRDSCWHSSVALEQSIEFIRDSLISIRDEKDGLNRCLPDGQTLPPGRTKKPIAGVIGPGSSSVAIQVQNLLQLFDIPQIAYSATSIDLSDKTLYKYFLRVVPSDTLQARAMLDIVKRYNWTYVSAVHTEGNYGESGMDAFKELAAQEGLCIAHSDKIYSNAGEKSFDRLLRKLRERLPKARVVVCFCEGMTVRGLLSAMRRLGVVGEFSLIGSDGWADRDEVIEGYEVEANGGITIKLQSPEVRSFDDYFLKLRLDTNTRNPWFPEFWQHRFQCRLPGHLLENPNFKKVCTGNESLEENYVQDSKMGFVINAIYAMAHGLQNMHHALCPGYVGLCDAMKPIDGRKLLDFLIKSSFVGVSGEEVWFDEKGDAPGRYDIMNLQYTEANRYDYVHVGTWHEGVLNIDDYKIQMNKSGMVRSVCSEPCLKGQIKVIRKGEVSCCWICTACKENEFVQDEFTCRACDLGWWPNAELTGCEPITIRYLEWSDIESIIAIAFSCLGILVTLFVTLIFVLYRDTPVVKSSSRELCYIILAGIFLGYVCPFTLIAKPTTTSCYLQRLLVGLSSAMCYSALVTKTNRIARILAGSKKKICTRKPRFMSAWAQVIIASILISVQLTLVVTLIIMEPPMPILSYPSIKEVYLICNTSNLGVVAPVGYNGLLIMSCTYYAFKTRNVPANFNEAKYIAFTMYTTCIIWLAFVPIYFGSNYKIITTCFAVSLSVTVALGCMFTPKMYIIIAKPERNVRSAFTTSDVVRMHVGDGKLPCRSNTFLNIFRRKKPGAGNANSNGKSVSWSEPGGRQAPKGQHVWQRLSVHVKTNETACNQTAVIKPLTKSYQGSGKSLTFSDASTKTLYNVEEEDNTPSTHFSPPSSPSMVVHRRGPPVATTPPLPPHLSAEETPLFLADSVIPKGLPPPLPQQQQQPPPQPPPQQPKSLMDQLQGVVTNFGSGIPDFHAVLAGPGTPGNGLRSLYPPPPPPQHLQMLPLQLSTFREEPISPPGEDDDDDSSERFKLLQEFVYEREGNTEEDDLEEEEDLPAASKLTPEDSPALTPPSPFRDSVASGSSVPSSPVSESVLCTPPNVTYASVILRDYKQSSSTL
T3 sequence (P97772 19-1199 N264H limits assumed): as the sequence (P97772 19-1199 limits assumed) above, with N246H counted along it
T1 sequence (P23385 19-1199 N264H): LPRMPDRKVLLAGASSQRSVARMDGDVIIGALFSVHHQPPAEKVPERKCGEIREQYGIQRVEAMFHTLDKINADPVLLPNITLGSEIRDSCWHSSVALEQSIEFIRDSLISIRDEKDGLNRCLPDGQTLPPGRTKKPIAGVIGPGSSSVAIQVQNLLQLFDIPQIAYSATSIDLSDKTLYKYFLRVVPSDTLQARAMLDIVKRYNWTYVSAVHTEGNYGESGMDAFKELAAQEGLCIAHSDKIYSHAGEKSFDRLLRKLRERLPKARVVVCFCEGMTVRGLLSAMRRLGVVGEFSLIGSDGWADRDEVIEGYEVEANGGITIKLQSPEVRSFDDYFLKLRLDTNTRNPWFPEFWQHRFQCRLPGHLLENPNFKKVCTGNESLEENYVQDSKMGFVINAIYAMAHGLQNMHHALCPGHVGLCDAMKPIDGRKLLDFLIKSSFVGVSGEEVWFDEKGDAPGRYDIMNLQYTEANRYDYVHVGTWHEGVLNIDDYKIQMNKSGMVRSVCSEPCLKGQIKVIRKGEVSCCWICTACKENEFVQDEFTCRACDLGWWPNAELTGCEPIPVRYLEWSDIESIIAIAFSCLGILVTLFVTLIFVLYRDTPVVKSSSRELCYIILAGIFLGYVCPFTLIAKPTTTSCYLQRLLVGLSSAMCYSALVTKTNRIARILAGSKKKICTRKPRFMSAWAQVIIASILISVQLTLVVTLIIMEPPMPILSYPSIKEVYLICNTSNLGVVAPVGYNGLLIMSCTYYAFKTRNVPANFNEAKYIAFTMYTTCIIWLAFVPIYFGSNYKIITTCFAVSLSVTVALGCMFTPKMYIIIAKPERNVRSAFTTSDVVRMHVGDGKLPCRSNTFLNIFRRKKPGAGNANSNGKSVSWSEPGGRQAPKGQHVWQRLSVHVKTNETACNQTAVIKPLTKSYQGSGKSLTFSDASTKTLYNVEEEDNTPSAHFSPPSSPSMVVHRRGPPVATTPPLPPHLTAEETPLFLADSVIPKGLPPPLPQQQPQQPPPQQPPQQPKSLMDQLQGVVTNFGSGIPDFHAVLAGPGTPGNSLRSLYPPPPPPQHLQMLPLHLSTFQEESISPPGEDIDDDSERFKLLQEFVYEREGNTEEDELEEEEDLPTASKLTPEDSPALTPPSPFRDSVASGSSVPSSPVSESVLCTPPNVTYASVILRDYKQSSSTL

CC(C)Nc1cc(-c2csc(N(C)C(=O)c3ccc(F)cc3)n2)ncn1 [FITM]
Effect of pre-treated inhibitor on 10 µM Pd(bpy)-induced Ca2+ responses (mGlu1(N264H) mutant): inhibited | Competition of FITM-Cy3 fluorescence in the molecular layer [1, 3]: disappearance of fluorescence | FITM-Cy3 signal with FITM (+), Ave (Fig.5d) [1, 4]: 0.2072 | FITM-Cy3 signal with FITM (+), individual values #1-#5 (Fig.5d) [1, 4]: 0.08371 and 0.2036 and 0.1822 and 0.2639 and 0.3024 | Competition of FITM-Cy3 fluorescence in the molecular layer [2, 3]: disappearance of fluorescence | FITM-Cy3 signal with FITM (+), Ave (Fig.5d) [2, 5]: 0.1786 | FITM-Cy3 signal with FITM (+), individual values #1-#5 (Fig.5d) [2, 5]: 0.1218 and 0.08484 and 0.2076 and 0.2159 and 0.2628 | Effect of inhibitor on 30 µM Pd(bpy)-induced [Ca2+]i elevation (primary cortical neurons): suppressed by neither
